Measurements taken from the NIST ThermoML archive (doi:10.1016/j.fluid.2015.07.012).

Assay: xn = mol fraction of the nth substance listed
Details: Liquid; for viscosity: Capillary tube (Ostwald / Ubbelohde) method; for mass density: Vibrating tube method

CCO [ethanol] + O
Details	mass density, 10000 kPa [kg/m3]	mass density, 20000 kPa [kg/m3]	mass density, 30000 kPa [kg/m3]	mass density, 40000 kPa [kg/m3]	viscosity, 10000 kPa [mPa·s]	viscosity, 20000 kPa [mPa·s]	viscosity, 30000 kPa [mPa·s]	viscosity, 40000 kPa [mPa·s]
350.7 K, x1 = 0.1	933.68	936.77	941.46	945.15	0.537	0.546	0.556	0.578
350.7 K, x1 = 0.2	895.78	900.9	905.65	911.39	0.625	0.638	0.651	0.681
350.7 K, x1 = 0.3	863.89	870.14	876.58	881.9	0.632	0.661	0.684	0.726
350.7 K, x1 = 0.4	838.33	845.24	852.53	859.05	0.64	0.669	0.691	0.737
350.7 K, x1 = 0.6	798.55	807.87	815.61	822.93	0.595	0.624	0.654	0.695
350.7 K, x1 = 0.8	768.37	778.79	787.77	795.87	0.531	0.57	0.601	0.643
350.7 K, x1 = 1	745.63	757.47	766.87	775.75	0.461	0.518	0.555	0.59
373.2 K, x1 = 0.1	913.36	918.8	924.46	928.74	0.401	0.397	0.403	0.421
373.2 K, x1 = 0.2	874.72	880.64	886.74	892.24	0.448	0.449	0.459	0.483
373.2 K, x1 = 0.3	842.36	849.56	856.1	862.39	0.461	0.473	0.484	0.515
373.2 K, x1 = 0.4	815.79	823.45	830.81	837.9	0.462	0.477	0.489	0.509
373.2 K, x1 = 0.6	776.56	785.48	794.06	801.93	0.434	0.451	0.461	0.489
373.2 K, x1 = 0.8	747.1	757.25	767.44	776.49	0.381	0.406	0.439	0.456
373.2 K, x1 = 1	726.87	738.25	750.02	757.87	0.364	0.382	0.404	0.443
476.2 K, x1 = 0.1	802.54	810.76	819.25	827.58	0.148	0.152	0.159	0.164
476.2 K, x1 = 0.2	752.52	764.89	776.24	786.01	0.151	0.157	0.164	0.168
476.2 K, x1 = 0.3	713.85	728.6	743.62	754.08	0.144	0.153	0.164	0.172
476.2 K, x1 = 0.4	682.37	700.31	717.25	730.44	0.139	0.148	0.159	0.167
476.2 K, x1 = 0.6	636.05	658.71	679.71	694.35	0.125	0.138	0.15	0.161
476.2 K, x1 = 0.8	605.36	633.16	656.43	671.76	0.113	0.129	0.144	0.155
476.2 K, x1 = 1	582.85	613.37	638.82	656.07	0.107	0.123	0.138	0.151

CCCO [propan-1-ol] + O
Details	mass density, 10000 kPa [kg/m3]	mass density, 20000 kPa [kg/m3]	mass density, 30000 kPa [kg/m3]	mass density, 40000 kPa [kg/m3]	viscosity, 10000 kPa [mPa·s]	viscosity, 20000 kPa [mPa·s]	viscosity, 30000 kPa [mPa·s]	viscosity, 40000 kPa [mPa·s]
350.7 K, x1 = 0.1	919.5	924.38	929.09	934.42	0.591	0.611	0.63	0.635
350.7 K, x1 = 0.2	878.37	883.66	889.66	895.4	0.723	0.763	0.81	0.826
350.7 K, x1 = 0.3	847.8	854.62	861.08	866.79	0.77	0.814	0.85	0.861
350.7 K, x1 = 0.4	826	833.03	840.74	847.26	0.758	0.81	0.86	0.883
350.7 K, x1 = 0.6	796.1	804.64	812.37	819.69	0.737	0.774	0.848	0.88
350.7 K, x1 = 0.8	776.11	786.05	794.61	802.32	0.689	0.736	0.827	0.864
350.7 K, x1 = 1	763.09	772.75	781.33	789.02	0.694	0.753	0.823	0.869
373.2 K, x1 = 0.1	900.32	905.78	911.46	916.96	0.439	0.441	0.455	0.463
373.2 K, x1 = 0.2	857.3	863.27	869.79	875.69	0.504	0.513	0.533	0.547
373.2 K, x1 = 0.3	827.05	834.28	842.03	848.33	0.531	0.55	0.577	0.599
373.2 K, x1 = 0.4	804.56	813.43	820.4	827.89	0.514	0.542	0.57	0.6
373.2 K, x1 = 0.6	774.56	784.28	792.47	800.74	0.51	0.541	0.576	0.611
373.2 K, x1 = 0.8	755.44	765.59	774.18	782.84	0.49	0.531	0.572	0.614
373.2 K, x1 = 1	741.54	752.5	762.28	770.94	0.488	0.533	0.581	0.613
476.2 K, x1 = 0.1	790.18	799.73	810.27	818.93	0.161	0.171	0.175	0.179
476.2 K, x1 = 0.2	739.33	752.08	764.81	775.35	0.162	0.172	0.181	0.189
476.2 K, x1 = 0.3	702.79	718.75	733.87	745.92	0.157	0.17	0.183	0.195
476.2 K, x1 = 0.4	678.7	697.03	713.61	726.38	0.153	0.17	0.189	0.21
476.2 K, x1 = 0.6	646.98	667.25	686.56	700.42	0.145	0.161	0.178	0.195
476.2 K, x1 = 0.8	627.55	651.81	672.08	686.68	0.139	0.157	0.173	0.188
476.2 K, x1 = 1	612.56	640.86	662.44	677.8	0.137	0.157	0.176	0.192
